Assay results as given in patent US8410161B2, “Thioxanthone ring system derivatives” (National Defense Medical Center, priority 2010, dated 2013).

Assays:
[1] = tested on: A control cell lines; assay: MTT assay, A control cell lines (lung cancer cell); format: cell-based
Text: Please refer to Table 1 and FIGS. 4A-4C. According to a MTT assay (Table 1), various cell viabilities of the A control cell lines can be obtained and illustrated in FIG. 4A while the compounds No. 2˜30 are used to treat A control cell lines, wherein A control cell lines are lung cancer cell.

[2] = tested on: A3 cell lines; assay: MTT assay, A3 cell lines (lung cancer stem cell); format: cell-based
Text: Please to FIG. 4B, various cell viabilities of the A3 cell lines can be obtained through the MTT assay and illustrated in FIG. 4B while the compounds No. 1˜30 are used to treat A3 cell lines, wherein A3 cell lines are lung cancer stem cell.

[3] = MTT assay, HEL299 fibroblast; format: cell-based; conditions: human
Text: Please refer to FIG. 4C, various cell viabilities of the HEL299 cell lines can be obtained through the MTT assay while the compounds No. 1˜30 are used to treat HEL299 cell lines, wherein HEL299 cell lines are fibroblast.

[4] = tested on: HL-60(TB); assay: NCI in vitro DTP human cell line screen, HL-60(TB); format: cell-based; conditions: Leukemia, 1.00E−5 Molar
Experimental: (§1) Then, a cell toxicity assay of the cancer lines made by National Cancer Institute will be discussed as follows. The cell toxicity assay is performed by choosing ten compounds (existing certification numbers) from the 59 compounds disclosed in the present invention first.

[5] = tested on: K562; assay: NCI in vitro DTP human cell line screen, K562; format: cell-based; conditions: Leukemia, 1.00E−5 Molar
Experimental: as §1

[6] = tested on: MOLT-4; assay: NCI in vitro DTP human cell line screen, MOLT-4; format: cell-based; conditions: Leukemia, 1.00E−5 Molar
Experimental: as §1

[7] = tested on: RPMI-8226; assay: NCI in vitro DTP human cell line screen, RPMI-8226; format: cell-based; conditions: Leukemia, 1.00E−5 Molar
Experimental: as §1

[8] = tested on: SR; assay: NCI in vitro DTP human cell line screen, SR; format: cell-based; conditions: Leukemia, 1.00E−5 Molar
Experimental: as §1

[9] = tested on: EKVX; assay: NCI in vitro DTP human cell line screen, EKVX; format: cell-based; conditions: Non-Small Cell Lung Cancer, 1.00E−5 Molar
Experimental: as §1

[10] = tested on: NCI-H226; assay: NCI in vitro DTP human cell line screen, NCI-H226; format: cell-based; conditions: Non-Small Cell Lung Cancer, 1.00E−5 Molar
Experimental: as §1

[11] = tested on: NCI-H23; assay: NCI in vitro DTP human cell line screen, NCI-H23; format: cell-based; conditions: Non-Small Cell Lung Cancer, 1.00E−5 Molar
Experimental: as §1

[12] = tested on: NCI-H322M; assay: NCI in vitro DTP human cell line screen, NCI-H322M; format: cell-based; conditions: Non-Small Cell Lung Cancer, 1.00E−5 Molar
Experimental: as §1

[13] = tested on: NCI-H460; assay: NCI in vitro DTP human cell line screen, NCI-H460; format: cell-based; conditions: Non-Small Cell Lung Cancer, 1.00E−5 Molar
Experimental: as §1

[14] = tested on: NCI-H522; assay: NCI in vitro DTP human cell line screen, NCI-H522; format: cell-based; conditions: Non-Small Cell Lung Cancer, 1.00E−5 Molar
Experimental: as §1

[15] = tested on: COLO 205; assay: NCI in vitro DTP human cell line screen, COLO 205; format: cell-based; conditions: Colon Cancer, 1.00E−5 Molar
Experimental: as §1

[16] = tested on: HCC-2998; assay: NCI in vitro DTP human cell line screen, HCC-2998; format: cell-based; conditions: Colon Cancer, 1.00E−5 Molar
Experimental: as §1

[17] = tested on: HCT-116; assay: NCI in vitro DTP human cell line screen, HCT-116; format: cell-based; conditions: Colon Cancer, 1.00E−5 Molar
Experimental: as §1

[18] = tested on: HCT-15; assay: NCI in vitro DTP human cell line screen, HCT-15; format: cell-based; conditions: Colon Cancer, 1.00E−5 Molar
Experimental: as §1

[19] = tested on: HT29; assay: NCI in vitro DTP human cell line screen, HT29; format: cell-based; conditions: Colon Cancer, 1.00E−5 Molar
Experimental: as §1

[20] = tested on: KM12; assay: NCI in vitro DTP human cell line screen, KM12; format: cell-based; conditions: Colon Cancer, 1.00E−5 Molar
Experimental: as §1

[21] = tested on: SW-620; assay: NCI in vitro DTP human cell line screen, SW-620; format: cell-based; conditions: Colon Cancer, 1.00E−5 Molar
Experimental: as §1

[22] = tested on: SF-268; assay: NCI in vitro DTP human cell line screen, SF-268; format: cell-based; conditions: CNS Cancer, 1.00E−5 Molar
Experimental: as §1

[23] = tested on: SF-295; assay: NCI in vitro DTP human cell line screen, SF-295; format: cell-based; conditions: CNS Cancer, 1.00E−5 Molar
Experimental: as §1

[24] = tested on: SF-539; assay: NCI in vitro DTP human cell line screen, SF-539; format: cell-based; conditions: CNS Cancer, 1.00E−5 Molar
Experimental: as §1

[25] = tested on: SNB-75; assay: NCI in vitro DTP human cell line screen, SNB-75; format: cell-based; conditions: CNS Cancer, 1.00E−5 Molar
Experimental: as §1

[26] = tested on: U251; assay: NCI in vitro DTP human cell line screen, U251; format: cell-based; conditions: CNS Cancer, 1.00E−5 Molar
Experimental: as §1

[27] = tested on: LOX IMVI; assay: NCI in vitro DTP human cell line screen, LOX IMVI; format: cell-based; conditions: Melanoma, 1.00E−5 Molar
Experimental: as §1

[28] = tested on: MALME-3M; assay: NCI in vitro DTP human cell line screen, MALME-3M; format: cell-based; conditions: Melanoma, 1.00E−5 Molar
Experimental: as §1

[29] = tested on: M14; assay: NCI in vitro DTP human cell line screen, M14; format: cell-based; conditions: Melanoma, 1.00E−5 Molar
Experimental: as §1

[30] = tested on: MDA-MB-435; assay: NCI in vitro DTP human cell line screen, MDA-MB-435; format: cell-based; conditions: Melanoma, 1.00E−5 Molar
Experimental: as §1

[31] = tested on: SK-MEL-2; assay: NCI in vitro DTP human cell line screen, SK-MEL-2; format: cell-based; conditions: Melanoma, 1.00E−5 Molar
Experimental: as §1

[32] = tested on: SK-MEL-28; assay: NCI in vitro DTP human cell line screen, SK-MEL-28; format: cell-based; conditions: Melanoma, 1.00E−5 Molar
Experimental: as §1

[33] = tested on: SK-MEL-5; assay: NCI in vitro DTP human cell line screen, SK-MEL-5; format: cell-based; conditions: Melanoma, 1.00E−5 Molar
Experimental: as §1

[34] = tested on: UACC-257; assay: NCI in vitro DTP human cell line screen, UACC-257; format: cell-based; conditions: Melanoma, 1.00E−5 Molar
Experimental: as §1

[35] = tested on: IGROV1; assay: NCI in vitro DTP human cell line screen, IGROV1; format: cell-based; conditions: Ovarian Cancer, 1.00E−5 Molar
Experimental: as §1

[36] = tested on: OVCAR-3; assay: NCI in vitro DTP human cell line screen, OVCAR-3; format: cell-based; conditions: Ovarian Cancer, 1.00E−5 Molar
Experimental: as §1

[37] = tested on: OVCAR-4; assay: NCI in vitro DTP human cell line screen, OVCAR-4; format: cell-based; conditions: Ovarian Cancer, 1.00E−5 Molar
Experimental: as §1

[38] = tested on: OVCAR-5; assay: NCI in vitro DTP human cell line screen, OVCAR-5; format: cell-based; conditions: Ovarian Cancer, 1.00E−5 Molar
Experimental: as §1

[39] = tested on: OVCAR-8; assay: NCI in vitro DTP human cell line screen, OVCAR-8; format: cell-based; conditions: Ovarian Cancer, 1.00E−5 Molar
Experimental: as §1

[40] = tested on: NCI/ADR-RES; assay: NCI in vitro DTP human cell line screen, NCI/ADR-RES; format: cell-based; conditions: Ovarian Cancer, 1.00E−5 Molar
Experimental: as §1

[41] = tested on: SK-OV-3; assay: NCI in vitro DTP human cell line screen, SK-OV-3; format: cell-based; conditions: Ovarian Cancer, 1.00E−5 Molar
Experimental: as §1

[42] = tested on: 786-0; assay: NCI in vitro DTP human cell line screen, 786-0; format: cell-based; conditions: Renal Cancer, 1.00E−5 Molar
Experimental: as §1

[43] = tested on: ACHN; assay: NCI in vitro DTP human cell line screen, ACHN; format: cell-based; conditions: Renal Cancer, 1.00E−5 Molar
Experimental: as §1

[44] = tested on: CAKI-1; assay: NCI in vitro DTP human cell line screen, CAKI-1; format: cell-based; conditions: Renal Cancer, 1.00E−5 Molar
Experimental: as §1

[45] = tested on: RXF 393; assay: NCI in vitro DTP human cell line screen, RXF 393; format: cell-based; conditions: Renal Cancer, 1.00E−5 Molar
Experimental: as §1

[46] = tested on: TK-10; assay: NCI in vitro DTP human cell line screen, TK-10; format: cell-based; conditions: Renal Cancer, 1.00E−5 Molar
Experimental: as §1

[47] = tested on: UO-31; assay: NCI in vitro DTP human cell line screen, UO-31; format: cell-based; conditions: Renal Cancer, 1.00E−5 Molar
Experimental: as §1

[48] = tested on: PC-3; assay: NCI in vitro DTP human cell line screen, PC-3; format: cell-based; conditions: Prostate Cancer, 1.00E−5 Molar
Experimental: as §1

[49] = tested on: DU145; assay: NCI in vitro DTP human cell line screen, DU145; format: cell-based; conditions: Prostate Cancer, 1.00E−5 Molar
Experimental: as §1

[50] = tested on: MCF7; assay: NCI in vitro DTP human cell line screen, MCF7; format: cell-based; conditions: Breast Cancer, 1.00E−5 Molar
Experimental: as §1

[51] = tested on: HS 578-T; assay: NCI in vitro DTP human cell line screen, HS 578-T; format: cell-based; conditions: Breast Cancer, 1.00E−5 Molar
Experimental: as §1

[52] = tested on: BT-549; assay: NCI in vitro DTP human cell line screen, BT-549; format: cell-based; conditions: Breast Cancer, 1.00E−5 Molar
Experimental: as §1

[53] = tested on: T-47D; assay: NCI in vitro DTP human cell line screen, T-47D; format: cell-based; conditions: Breast Cancer, 1.00E−5 Molar
Experimental: as §1

[54] = tested on: MDA-MB-468; assay: NCI in vitro DTP human cell line screen, MDA-MB-468; format: cell-based; conditions: Breast Cancer, 1.00E−5 Molar
Experimental: as §1

[55] = tested on: 60 cancer lines; assay: NCI cell toxicity assay of 60 cancer lines, whole panel summary; format: cell-based, human; conditions: mean over all cell lines; 1.00E−5 Molar
Experimental: as §1

For `COc1cccc(Sc2ccc3c(=O)c4ccccc4sc3c2Cl)c1` [No. 16, 4-Chloro-3-(3-methoxylphenylthio)-9H-thioxanthen-9-one], the “cell viabilities of A control cell lines (MTT assay)” value [1] was 91.8 ± 3.07%, the “cell viabilities of A3 cell lines (MTT assay)” value [2] was 90.0 ± 1.24% and the viability [3] was 90.6 ± 11.5%. The “Growth Percent” value [4] was 115.43%, the “Growth Percent” value [5] was 97.79% and the “Growth Percent” value [6] was 111.47%. For the same molecule, the “Growth Percent” value [7] was 99.57%, the “Growth Percent” value [8] was 99.21% and the “Growth Percent” value [9] was 96.56%. The “Growth Percent” value [10] was 95.11%, the “Growth Percent” value [11] was 92.69% and the “Growth Percent” value [12] was 118.28%. The “Growth Percent” value [13] was 108.81%, the “Growth Percent” value [14] was 86.09% and the “Growth Percent” value [15] was 113.53%. For the same molecule, the “Growth Percent” value [16] was 103.45%, the “Growth Percent” value [17] was 101.88% and the “Growth Percent” value [18] was 94.87%. For the same molecule, the “Growth Percent” value [19] was 91.02%, the “Growth Percent” value [20] was 114.13% and the “Growth Percent” value [21] was 106.14%. The “Growth Percent” value [22] was 104.10%, the “Growth Percent” value [23] was 108.18% and the “Growth Percent” value [24] was 100.06%. For the same molecule, the “Growth Percent” value [25] was 86.86%, the “Growth Percent” value [26] was 93.76% and the “Growth Percent” value [27] was 93.53%. For the same molecule, the “Growth Percent” value [28] was 94.91%, the “Growth Percent” value [29] was 111.90% and the “Growth Percent” value [30] was 100.32%. For the same molecule, the “Growth Percent” value [31] was 97.07%, the “Growth Percent” value [32] was 109.16% and the “Growth Percent” value [33] was 96.73%. The “Growth Percent” value [34] was 89.21%, the “Growth Percent” value [35] was 108.37% and the “Growth Percent” value [36] was 113.99%. The “Growth Percent” value [37] was 99.88%, the “Growth Percent” value [38] was 94.14% and the “Growth Percent” value [39] was 94.29%. For the same molecule, the “Growth Percent” value [40] was 102.83%, the “Growth Percent” value [41] was 104.91% and the “Growth Percent” value [42] was 107.97%. For the same molecule, the “Growth Percent” value [43] was 103.08%, the “Growth Percent” value [44] was 101.23% and the “Growth Percent” value [45] was 112.67%. The “Growth Percent” value [46] was 95.23%, the “Growth Percent” value [47] was 98.31% and the “Growth Percent” value [48] was 98.58%. The “Growth Percent” value [49] was 115.18%, the “Growth Percent” value [50] was 88.94% and the “Growth Percent” value [51] was 103.73%. For the same molecule, the “Growth Percent” value [52] was 112.48%, the “Growth Percent” value [53] was 92.09% and the “Growth Percent” value [54] was 104.49%. The “Growth Percent, Mean” value [55] was 101.65%.
